Test results published in PubChem BioAssay (NCI).
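Growth conditions: 96-well plates. Treatment: test compound, 48 hours, 5 concentrations. Analysis: linear interpolation between bracketing concentrations; unreached endpoints set to highest concentration. The concentration for full growth arrest is given as TGI.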

Experiments:
Assay in all cases: NCI tumour cell line growth inhibition, 48 h
[1] = test system: SN12C renal
[2] = test system: TK-10 renal
[3] = test system: RXF 393 renal
[4] = test system: RPMI-8226 leukemia
[5] = test system: NCI-H23 lung
[6] = test system: SF-268 CNS
[7] = test system: SNB-19 CNS
[8] = test system: SF-295 CNS
[9] = test system: ACHN renal
[10] = test system: HOP-18 NSCLC
[11] = test system: KM12 colon
[12] = test system: SW-620 colon
[13] = test system: SK-MEL-2 melanoma
[14] = test system: HCT-15 colon
[15] = test system: NCI-H460 lung
[16] = test system: HOP-92 NSCLC
[17] = test system: 786-0 renal
[18] = test system: DMS 114 small cell lung
[19] = test system: CAKI-1 renal
[20] = test system: SK-MEL-28 melanoma
[21] = test system: HCT-116 colon
[22] = test system: DLD-1 colon
[23] = test system: MALME-3M melanoma
[24] = test system: UACC-62 melanoma
[25] = test system: SK-MEL-5 melanoma
[26] = test system: XF 498 CNS
[27] = test system: SNB-75 CNS
[28] = test system: HL-60(TB) leukemia
[29] = test system: NCI-H226 lung
[30] = test system: M19-MEL melanoma
[31] = test system: SF-539 CNS
[32] = test system: M14 melanoma
[33] = test system: HOP-62 NSCLC
[34] = test system: OVCAR-8 ovarian
[35] = test system: DMS 273 small cell lung
[36] = test system: IGROV1 ovarian
[37] = test system: U251 CNS
[38] = test system: K-562 leukemia
[39] = test system: SNB-78 CNS
[40] = test system: HCC-2998 colon
[41] = test system: CCRF-CEM leukemia
[42] = test system: OVCAR-3 ovarian
[43] = test system: A549 NSCLC
[44] = test system: MOLT-4 leukemia
[45] = test system: EKVX NSCLC
[46] = test system: SK-OV-3 ovarian
[47] = test system: A498 renal
[48] = test system: HT29 colon
[49] = test system: UO-31 renal
[50] = test system: KM20L2 colon
[51] = test system: OVCAR-5 ovarian
[52] = test system: LXFL 529 NSCLC
[53] = test system: COLO 205 colon
[54] = test system: UACC-257 melanoma
[55] = test system: NCI-H522 lung
[56] = test system: OVCAR-4 ovarian
[57] = test system: SR leukemia
[58] = test system: LOX IMVI melanoma

`CC(=O)CC(=O)Nc1ccccc1[N+](=O)[O-]` was tested. Which TGI [1] did it give?
The TGI was > 100 µM.

And the TGI [2]?
The TGI was > 100 µM.

What about the TGI [3] of the same compound?
Its TGI is > 100 µM.

What about the TGI [4] of the same compound?
Its TGI is > 100 µM.

And the TGI [5]?
Its TGI is > 100 µM.

And the TGI [6]?
The TGI was > 100 µM.

What about the TGI [7] of the same compound?
The TGI was > 100 µM.

What about the TGI [8] of the same compound?
The TGI was > 100 µM.

What about the TGI [9] of the same compound?
Its TGI is > 100 µM.

What about the TGI [10] of the same compound?
Its TGI is > 100 µM.

And the TGI [11]?
Its TGI is > 100 µM.

And the TGI [12]?
The TGI was > 100 µM.

What about the TGI [13] of the same compound?
The TGI was > 100 µM.

What about the TGI [14] of the same compound?
Its TGI is > 100 µM.

What about the TGI [15] of the same compound?
Its TGI is > 100 µM.

And the TGI [16]?
Its TGI is > 100 µM.

What about the TGI [17] of the same compound?
The TGI was > 100 µM.

And the TGI [18]?
The TGI was > 100 µM.

What about the TGI [19] of the same compound?
Its TGI is > 100 µM.

What about the TGI [20] of the same compound?
Its TGI is > 100 µM.

What about the TGI [21] of the same compound?
The TGI was > 100 µM.

And the TGI [22]?
The TGI was > 100 µM.

And the TGI [23]?
The TGI was > 100 µM.

And the TGI [24]?
The TGI was > 100 µM.

And the TGI [25]?
Its TGI is > 100 µM.

And the TGI [26]?
Its TGI is > 100 µM.

And the TGI [27]?
Its TGI is > 100 µM.

And the TGI [28]?
The TGI was > 100 µM.

And the TGI [29]?
The TGI was > 100 µM.

What about the TGI [30] of the same compound?
The TGI was > 100 µM.

And the TGI [31]?
The TGI was > 100 µM.

What about the TGI [32] of the same compound?
The TGI was > 100 µM.

And the TGI [33]?
Its TGI is > 100 µM.

What about the TGI [34] of the same compound?
The TGI was > 100 µM.

What about the TGI [35] of the same compound?
Its TGI is > 100 µM.

And the TGI [36]?
The TGI was > 100 µM.

What about the TGI [37] of the same compound?
The TGI was > 100 µM.

And the TGI [38]?
The TGI was > 100 µM.

What about the TGI [39] of the same compound?
Its TGI is > 100 µM.

What about the TGI [40] of the same compound?
Its TGI is > 100 µM.

What about the TGI [41] of the same compound?
Its TGI is > 100 µM.

And the TGI [42]?
Its TGI is > 100 µM.

And the TGI [43]?
The TGI was > 100 µM.

What about the TGI [44] of the same compound?
The TGI was > 100 µM.

And the TGI [45]?
The TGI was > 100 µM.

And the TGI [46]?
The TGI was > 100 µM.

What about the TGI [47] of the same compound?
The TGI was > 100 µM.

What about the TGI [48] of the same compound?
Its TGI is > 100 µM.

And the TGI [49]?
Its TGI is > 100 µM.

And the TGI [50]?
The TGI was > 100 µM.

What about the TGI [51] of the same compound?
The TGI was > 100 µM.

What about the TGI [52] of the same compound?
The TGI was > 100 µM.

What about the TGI [53] of the same compound?
Its TGI is > 100 µM.

What about the TGI [54] of the same compound?
Its TGI is > 100 µM.

And the TGI [55]?
The TGI was > 100 µM.

What about the TGI [56] of the same compound?
The TGI was > 100 µM.

And the TGI [57]?
Its TGI is > 100 µM.

Which TGI [1] does the source give for `COC(=O)[C@@]12C(=O)CCC(=O)C1C1C(=CC2C)O[C@@H]2OC3(CCCCC3)O[C@H]12` (stereo not given in full) here?
Its TGI is > 100 µM.

And the TGI [2]?
The TGI was > 100 µM.

What about the TGI [3] of the same compound?
Its TGI is > 100 µM.

And the TGI [4]?
Its TGI is 83.2 µM.

What about the TGI [5] of the same compound?
The TGI was > 100 µM.

And the TGI [6]?
Its TGI is > 100 µM.

And the TGI [7]?
The TGI was > 100 µM.

And the TGI [8]?
The TGI was > 100 µM.

And the TGI [9]?
Its TGI is > 100 µM.

And the TGI [10]?
The TGI was > 100 µM.

And the TGI [11]?
Its TGI is > 100 µM.

What about the TGI [12] of the same compound?
The TGI was > 100 µM.

What about the TGI [13] of the same compound?
Its TGI is > 100 µM.

What about the TGI [14] of the same compound?
Its TGI is > 100 µM.

And the TGI [15]?
Its TGI is > 100 µM.

And the TGI [16]?
The TGI was > 100 µM.

What about the TGI [17] of the same compound?
The TGI was > 100 µM.

What about the TGI [18] of the same compound?
The TGI was > 100 µM.

And the TGI [19]?
The TGI was > 100 µM.

And the TGI [20]?
The TGI was > 100 µM.

And the TGI [21]?
The TGI was > 100 µM.

And the TGI [22]?
The TGI was > 100 µM.

And the TGI [23]?
Its TGI is > 100 µM.

What about the TGI [24] of the same compound?
Its TGI is > 100 µM.

What about the TGI [25] of the same compound?
The TGI was > 100 µM.

And the TGI [26]?
The TGI was > 93.6 µM.

What about the TGI [27] of the same compound?
The TGI was > 100 µM.

And the TGI [28]?
Its TGI is 59.1 µM.

And the TGI [29]?
The TGI was > 100 µM.

What about the TGI [30] of the same compound?
Its TGI is > 100 µM.

What about the TGI [31] of the same compound?
Its TGI is > 100 µM.

What about the TGI [32] of the same compound?
Its TGI is > 100 µM.

What about the TGI [33] of the same compound?
Its TGI is > 100 µM.

What about the TGI [34] of the same compound?
Its TGI is > 80.2 µM.

And the TGI [35]?
The TGI was > 100 µM.

What about the TGI [36] of the same compound?
The TGI was > 100 µM.

What about the TGI [37] of the same compound?
Its TGI is > 100 µM.

What about the TGI [38] of the same compound?
The TGI was > 100 µM.

What about the TGI [39] of the same compound?
The TGI was > 100 µM.

What about the TGI [40] of the same compound?
Its TGI is > 100 µM.

And the TGI [41]?
Its TGI is > 81 µM.

And the TGI [58]?
The TGI was > 100 µM.

And the TGI [42]?
Its TGI is > 100 µM.

What about the TGI [43] of the same compound?
The TGI was > 100 µM.

And the TGI [44]?
The TGI was 70.5 µM.

What about the TGI [45] of the same compound?
Its TGI is > 100 µM.

And the TGI [46]?
The TGI was > 100 µM.

What about the TGI [47] of the same compound?
The TGI was > 100 µM.

What about the TGI [48] of the same compound?
Its TGI is > 100 µM.

And the TGI [49]?
Its TGI is > 100 µM.

And the TGI [50]?
Its TGI is > 100 µM.

And the TGI [51]?
The TGI was > 100 µM.

What about the TGI [52] of the same compound?
Its TGI is > 100 µM.

What about the TGI [53] of the same compound?
The TGI was > 100 µM.

And the TGI [54]?
The TGI was > 100 µM.

And the TGI [55]?
Its TGI is 38.1 µM.

And the TGI [56]?
The TGI was > 100 µM.

And the TGI [57]?
The TGI was 58.8 µM.
